# Results reported in patent publication US12351597B2, “Substituted biphenyl or phenylheteroaryl-mannosides as antagonists of FimH” (GLAXOSMITHKLINE INTELLECTUAL PROPERTY DEVELOPMENT LIMITED, priority 2019, dated 2025).
# Target: T1, FimH (Escherichia coli, UniProt Q1R2J4)
# T1 construct: endogenous in cells; host or cells: E. coli UTI89 whole bacteria (piliated), with guinea pig red blood cells
# Assay: Hemagglutination inhibition assay (HAI)
# Assay type: cell-based
# Conditions: HAI titer / EC>90: concentration reducing bacterial agglutination of guinea pig red blood cells by >90%; UTI89 bacteria
# Text: “HAI titer or EC>90” is that concentration of the FimH inhibitor/antagonist which reduces the bacterial agglutination of guinea pig red blood cells by greater than 90%.
# The activities of the Examples 1-40 compounds above as FimH antagonists/inhibitors were obtained by the following assay(s), and values are provided in Table 1. The values not provided mean that the activities have not yet been tested.
# Hemagglutination Inhibition Assay (HAI)
# The hemagglutination inhibition (HAI) assay was performed with UTI89 bacteria and guinea pig red blood cells, as previously described (S. J. Hultgren, W. R. Schwan, A. J. Schaeffer, J. L. Duncan Infect. Immun. 1986, 54, 613-620 and Jarvis, C.; Han, Z.; Kalas, V.; Klein, R.; Pinkner, J. S.; Ford, B.; Binkley, J.; Cusumano, C. K.; Cusumano, Z.; Mydock-McGrane, L.; Hultgren, S. J.; Janetka, J. W., ChemMedChem 2016, 11, 367-373). Values not listed were not tested.
row,Structure (SMILES),HAI nM
1,"OC[C@H]1O[C@H](Oc2c(F)cc(-c3cnc(C(F)(F)F)cn3)cc2C(F)(F)F)[C@@H](O)[C@@H](O)[C@@H]1O [Example 2, (2R,3S,4S,5S,6R)-2-(2-Fluoro-6-(trifluoromethyl)-4-(5-(trifluoromethyl)pyrazin-2-yl)phenoxy)-6-(hydroxymethyl)tetrahydro-2H-pyran-3,4,5-triol]",“++++” (<50)
2,COc1ccc(-c2ccc(O[C@H]3O[C@H](CO)[C@@H](O)[C@H](O)[C@@H]3O)c(C)c2)cn1 [Example 8],“+++” (50-200)
3,Cc1cc(-c2ccc(N3CCCC3)nc2)ccc1O[C@H]1O[C@H](CO)[C@@H](O)[C@H](O)[C@@H]1O [Example 9],“++++” (<50)
4,Cc1cc(-c2ccnc(N(C)C)c2)ccc1O[C@H]1O[C@H](CO)[C@@H](O)[C@H](O)[C@@H]1O [Example 10],“++++” (<50)
5,N#Cc1cc(F)cc(-c2ccc(O[C@H]3O[C@H](CO)[C@@H](O)[C@H](O)[C@@H]3O)c(Cl)c2)c1 [Example 11],“+++” (50-200)
6,OC[C@H]1O[C@H](Oc2ccc(-c3nccc(C(F)(F)F)n3)cc2C(F)(F)F)[C@@H](O)[C@@H](O)[C@@H]1O [Example 13],“+++” (50-200)
7,Cc1cc(-c2ncc(C(F)(F)F)cn2)ccc1O[C@H]1O[C@H](CO)[C@@H](O)[C@H](O)[C@@H]1O [Example 15],“+++” (50-200)
8,OC[C@H]1O[C@H](Oc2ccc(-c3cc(C(F)(F)F)ccn3)cc2C(F)(F)F)[C@@H](O)[C@@H](O)[C@@H]1O [Example 18],“+++” (50-200)
9,OC[C@H]1O[C@H](Oc2c(F)cc(-c3cc(C(F)(F)F)ccn3)cc2C(F)(F)F)[C@@H](O)[C@@H](O)[C@@H]1O [Example 19],“++++” (<50)
10,OC[C@H]1O[C@H](Oc2ccc(-c3cc(C(F)(F)F)c(F)cn3)cc2C(F)(F)F)[C@@H](O)[C@@H](O)[C@@H]1O [Example 20],“+++” (50-200)
11,Cc1cc(-c2cnc(C(F)(F)F)c(F)c2)ccc1O[C@H]1O[C@H](CO)[C@@H](O)[C@H](O)[C@@H]1O [Example 21],“+++” (50-200)
12,OC[C@H]1O[C@H](Oc2ccc(-c3ncc(C(F)(F)F)cn3)cc2C(F)(F)F)[C@@H](O)[C@@H](O)[C@@H]1O [Example 22],“+++” (50-200)
13,Cc1cc(-c2cnccn2)ccc1O[C@H]1O[C@H](CO)[C@@H](O)[C@H](O)[C@@H]1O [Example 23],“+++” (50-200)
14,Cc1cc(-c2ccnc(C(F)(F)F)c2)ccc1O[C@H]1O[C@H](CO)[C@@H](O)[C@H](O)[C@@H]1O [Example 24],“+++” (50-200)
15,Cc1cc(-c2ccc(C(F)(F)F)nc2)ccc1O[C@H]1O[C@H](CO)[C@@H](O)[C@H](O)[C@@H]1O [Example 26],“+++” (50-200)
16,Cc1cc(-c2ccc(C(F)(F)F)cn2)ccc1O[C@H]1O[C@H](CO)[C@@H](O)[C@H](O)[C@@H]1O [Example 27],“+++” (50-200)
17,Cc1cc(-c2nccnc2C(F)(F)F)ccc1O[C@H]1O[C@H](CO)[C@@H](O)[C@H](O)[C@@H]1O [Example 29],“+++” (50-200)
18,Cc1cc(-c2cnc(F)c(C(F)(F)F)c2)ccc1O[C@H]1O[C@H](CO)[C@@H](O)[C@H](O)[C@@H]1O [Example 31],“+++” (50-200)
19,OC[C@H]1O[C@H](Oc2ccc(-c3ccc(C(F)(F)F)cn3)cc2C(F)(F)F)[C@@H](O)[C@@H](O)[C@@H]1O [Example 32],“+++” (50-200)
20,OC[C@H]1O[C@H](Oc2ccc(-c3cnc(C(F)(F)F)cn3)cc2Cl)[C@@H](O)[C@@H](O)[C@@H]1O [Example 33],“+++” (50-200)
21,Cc1cc(-c2cncc(C(F)(F)F)n2)ccc1O[C@H]1O[C@H](CO)[C@@H](O)[C@H](O)[C@@H]1O [Example 34],“+++” (50-200)
22,OC[C@H]1O[C@H](Oc2c(F)cc(-c3nccc(C(F)(F)F)n3)cc2C(F)(F)F)[C@@H](O)[C@@H](O)[C@@H]1O [Example 36],“++++” (<50)
